A word on the IC50: it is the midpoint of a concentration-inhibition curve. By CC50 is commonly meant the concentration at which the toxic effect on the cells reaches its halfway point. Read a low CC50 as greater toxicity to the cells. For orientation: inhibition means how much of the control response was suppressed.

Consider nine compounds from paper PMC10705938, “Discovery of Anti-Coronavirus Cinnamoyl Triterpenoids Isolated from Hippophae rhamnoides during a Screening of Halophytes from the North Sea and Channel Coasts in Northern France” (International Journal of Molecular Sciences, 2023).

Data set [1] concerns HCoV-229E. Description: HCoV-229E-Luc infection assay (luciferase) in Huh-7 cells. It is filed as cell-based. As to conditions: Human coronavirus 229E, purified compounds.
The subject of data set [2] is HCoV-229E. Description: HCoV-229E-Luc infection assay (luciferase) in Huh-7/TMPRSS2 cells. It is filed as cell-based. As to conditions: Human coronavirus 229E, purified compounds.
A short description of the next data set: in vitro. As to conditions: human, Huh-7 cells.
The subject of the next data set is SARS-CoV-2. Description: microbe, parasite or virus in culture. The format is cell-based. As to conditions: read-out: inhibition of SARS-CoV-2 (N protein levels).
In another data set the test system is hepatitis C virus. Also noted: method as in PMID 30842319. As to conditions: cited from earlier work.
In a further data set the test system is SARS-CoV-2 Mpro enzyme. Also noted: method as in PMID 35066300. As to conditions: cited from earlier work.
The next data set has as its system Candida albicans. Also noted: method as in PMID 11199141. As to conditions: cited from earlier work.
Another data set deals with Staphylococcus capitis. Also noted: method as in PMID 11199141. As to conditions: cited from earlier work.
Data set [3] concerns SARS-CoV-2 spike pseudotyped virus. As to conditions: in vitro; cited from earlier work.

≈ marks a conversion by molar mass, not a printed value. Where two headings read alike, the source gives them in different places.

Experimental for in vitro: The cytotoxicity of 25 crude methanolic extracts was tested on Huh-7 cells using an [3-(4,5-dimethylthiazol-2-yl)-5-(3-carboxymethoxyphenyl)-2-(4-sulfophenyl)-2H-tetrazolium]- based (MTS) viability assay. Huh-7 cells were treated with two different concentrations of the crude methanolic extracts (25 and 100 μg/mL) for 24 h. Non-treated control cells were incubated with 0.1% dimethyl sulfoxide (DMSO) in the media.
Huh-7 cells and Vero-81 cells were seeded in 96-well plates and incubated with 100 μL of culture medium containing increasing concentrations of our compounds for 24 h. An MTS based viability assay (CellTiter 96 aqueous nonradioactive cell proliferation assay, Promega, Madison WI, USA) was performed, as recommended by the manufacturer. The absorbance of formazan at 490 nm was detected using ELx808 plate reader (BioTek Instruments Inc., Winooski, VT, USA). Each measurement was performed in triplicate.

Consider `CC1(C)CC[C@]2(C(=O)O)CC[C@]3(C)C(=CC[C@@H]4[C@@]5(C)C[C@@H](OC(=O)/C=C/c6ccc(O)cc6)[C@H](O)C(C)(C)[C@@H]5CC[C@]43C)[C@@H]2C1` [F2-1, 2-O-trans-p-coumaroyl-maslinic acid], for which the concentration for half-maximal inhibition (IC50) with HCoV-229E [1] amounted to 8.6 µM; in the data set on HCoV-229E [2] it was 9.1 µM. The compound further gave a CC50 at 24 h in “in vitro” of 39.9 µM.

On to `C[C@H]1[C@H](C)CC[C@]2(C(=O)O)CC[C@]3(C)C(=CC[C@@H]4[C@@]5(C)C[C@@H](OC(=O)/C=C/c6ccc(O)cc6)[C@H](O)C(C)(C)[C@@H]5CC[C@]43C)[C@H]12` [F2-2, 3β-hydroxy-2α-trans-p-coumaryloxy-urs-12-en-28-oic acid], for which the figures for the IC50 with HCoV-229E [1] and in the data set with HCoV-229E [2] were 12 µM and 11.4 µM, respectively. This compound returned a cytotoxic concentration (CC50) at 24 h in the data set “in vitro” of 44.4 µM.

On to `CC1(C)CC[C@]2(C(=O)O)CC[C@]3(C)C(=CC[C@@H]4[C@@]5(C)CC[C@H](OC(=O)/C=C/c6ccc(O)cc6)C(C)(C)[C@@H]5CC[C@]43C)[C@@H]2C1` [F7-1, 3-O-trans-p-coumaroyl-oleanolic acid], for which the IC50 in the data set on HCoV-229E [1] came to 11.4 µM; with HCoV-229E [2], 10.7 µM. Further, the midpoint of cytotoxicity in the data set “in vitro”, the CC50 at 24 h, lay at 39.3 µM. In the data set on SARS-CoV-2 (Severe acute respiratory syndrome coronavirus 2, 16 h), the inhibition at 50 µM was found to be 55.5%.

On to `C=Cc1c(C)c(O)cc2ccc3c(C)c(O)ccc3c12` [dehydrojuncusol], for which, in the data set with hepatitis C virus, the “inhibition of hepatitis C virus replication” value was “inhibitor of hepatitis C virus replication”.

Take `C[C@H]1[C@H](C)CC[C@]2(C(=O)O)CC[C@]3(C)C(=CC[C@@H]4[C@@]5(C)CC[C@H](O)C(C)(C)[C@@H]5CC[C@]43C)[C@H]12` [UA, ursolic acid]: the “inhibition of SARS-CoV-2 Mpro enzyme activity” value in the data set on SARS-CoV-2 Mpro enzyme was “successfully inhibited its activity”.

On to `CC1(C)CC[C@]2(C(=O)O)CC[C@]3(C)C(=CC[C@@H]4[C@@]5(C)C[C@@H](O)[C@H](OC(=O)/C=C/c6ccc(O)cc6)C(C)(C)[C@@H]5CC[C@]43C)[C@@H]2C1` (relative stereo) [3-β -O-(trans-p-coumaroyl)maslinic acid], for which the minimum inhibitory concentration with Candida albicans and in the data set with Staphylococcus capitis was 12.5 µg/mL (≈ 20.2 µM) each time.

Consider `CC1(C)CC[C@]2(C(=O)O)CC[C@]3(C)C(=CC[C@@H]4[C@@]5(C)CC[C@H](OC(=O)/C=C/c6ccc(O)c(O)c6)C(C)(C)[C@@H]5CC[C@]43C)[C@@H]2C1` [F4-2, 3-O-trans-caffeoyl-oleanolic acid], for which the IC50 was found to be 11.6 µM with HCoV-229E [1] and 11.5 µM in the data set with HCoV-229E [2]. Also, the CC50 at 24 h in “in vitro” amounted to 81.4 µM. Further, the inhibition at 50 µM with SARS-CoV-2 (Severe acute respiratory syndrome coronavirus 2, 50 µM, Vero-81, 16 h, Western blot) came to 54%.

Consider `COc1cc(-c2oc3cc(O)cc(O)c3c(=O)c2O)ccc1O` [isorhamnetin], for which the “antiviral activity against SARS-CoV-2 spike pseudotyped virus” value in data set [3] is recorded as “displayed antiviral activity”.

As for `C[C@H]1[C@H](C)CC[C@]2(C(=O)O)CC[C@]3(C)C(=CC[C@@H]4[C@@]5(C)C[C@@H](OC(=O)/C=C\c6ccc(O)cc6)[C@H](O)C(C)(C)[C@@H]5CC[C@]43C)[C@H]12` [F2-3, 3β-hydroxy-2α-cis-p-coumaryloxy-urs-12-en-28-oic acid], the IC50 with HCoV-229E [1] was found to be 14.5 µM; in the data set on HCoV-229E [2], 14.1 µM. Half-maximal cytotoxicity in “in vitro” (CC50 at 24 h) was put at 52.1 µM.
